Test results: US6258790A, “Antisense modulation of integrin α4 expression” (Isis Pharmaceuticals, Inc., priority 1999, dated 2001)

Columns and labels:
[1] = system: Mouse experimental autoimmune encephalomyelitis (EAE); test: Mouse experimental autoimmune encephalomyelitis (EAE) model for multiple sclerosis; assay type: in vivo, mouse (CSJLF-1); details: for Peak Severity: score 0 to 5; for effect on EAE given therapeutically: therapeutic
integrin α4 = test: Inhibition of integrin α4 protein expression in Jurkat T-lymphocyte cells; assay type: cell-based, human
Description: ISIS 107248 was tested at doses of 1, 3, 10, 20 and 30 μM for ability to inhibit integrin α4 expression in Jurkat T-lymphocyte cells according to the previous examples. Integrin α4 protein expression was reduced by approximately 65-72% at oligonucleotide doses of 3-30 μM at 24 hours after oligonucleotide treatment. At 48 hours after treatment, integrin α4 protein expression was reduced by 60% at 3 μM and by 90% at 10, 20 and 30 μM oligonucleotide concentration.

human integrin α4 = test: Integrin α4 protein expression in A375 cells after electroporation of oligonucleotide (flow cytometry); assay type: cell-based
Description: A375 cells were treated with ISIS 107245, 107248, 107252, 107255 and 107259 by electroporation at 175 volts, r=1, c=1000, 0.2 ml Opti-MEM, 1×10^6 cells /ml, 2 mm gap electrode using a BTX Electro Cell Manipulator 600 (Genetronics, San Diego Calif.). Oligonucleotide concentrations were 1, 3, 10 and 30 μM. Cells were harvested 24 hours after oligonucleotide treatment and strained with 2 ug/ml CD49d-FITC for flow cytometry as in the previous examples.
ISIS 107248 was compared directly to ISIS 27104 for ability to inhibit integrin α4 expression in A375 melanoma cells. Oligonucleotides were electroporated into cells as in the previous example.

[2] = EAE Experiment 1, 1 mg/kg daily SC
[3] = EAE Experiment 1, 5 mg/kg daily SC
[4] = EAE Experiment 1, 10 mg/kg daily SC
[5] = EAE Experiment 1, 20 mg/kg daily SC
[6] = EAE Experiment 3, 1 mg/kg 3× weekly
[7] = EAE Experiment 4, 0.01 mg/kg, prophylactic (P)
[8] = EAE Experiment 4, 0.1 mg/kg SC, prophylactic (P)
[9] = EAE Experiment 4, 1.0 mg/kg SC, prophylactic (P)
[10] = EAE Experiment 4, 1 mg/kg, therapeutic (T), day 18 to 31
[11] = EAE Experiment 4, 2.0 mg/kg SC, prophylactic (P)
[12] = EAE Experiment 5, 0.01 mg/kg, prophylactic (P)
[13] = EAE Experiment 5, 0.1 mg/kg SC, prophylactic (P)
[14] = EAE Experiment 5, 1.0 mg/kg SC, prophylactic (P)
[15] = EAE Experiment 5, 1 mg/kg, therapeutic (T), day 11 to 27
[16] = EAE Experiment 5, 2.0 mg/kg SC, prophylactic (P)

17044 (CCGCAGCCATGCGCTCTTGG; phosphorothioate, 2'-MOE/deoxy, further chemistry not given here) [compound 17044]
effect on EAE ([1]; EAE Experiment 1): reduced disease severity or delayed disease onset | Days to Onset [1, 2]: 17.25 days | Disease Incidence [1, 2]: 4/7 | Peak Severity [1, 2]: 0.29 | Days to Onset [1, 3]: 17 days | Disease Incidence [1, 3]: 6/7 | Peak Severity [1, 3]: 1.86 | Days to Onset [1, 4]: 12.75 days | Disease Incidence [1, 4]: 4/7 | Peak Severity [1, 4]: 2.0 | Days to Onset [1, 5]: 15 days | Disease Incidence [1, 5]: 5/7 | Peak Severity [1, 5]: 1.43 | effect on EAE ([1]; EAE Experiment 2): reduced disease severity and delayed disease onset at all concentrations | Days to Onset ([1]; EAE Experiment 2, 0.3 mg/kg SC): 16.57 days | Disease Incidence ([1]; EAE Experiment 2, 0.3 mg/kg SC): 7/7 | Peak Severity ([1]; EAE Experiment 2, 0.3 mg/kg SC): 2.14 | Days to Onset ([1]; EAE Experiment 2, 1 mg/kg IV): 17.2 days | Disease Incidence ([1]; EAE Experiment 2, 1 mg/kg IV): 5/7 | Peak Severity ([1]; EAE Experiment 2, 1 mg/kg IV): 1.42 | Days to Onset ([1]; EAE Experiment 2, 1 mg/kg SC): 18.25 days | Disease Incidence ([1]; EAE Experiment 2, 1 mg/kg SC): 4/7 | Peak Severity ([1]; EAE Experiment 2, 1 mg/kg SC): 1.0 | Days to Onset ([1]; EAE Experiment 2, 3 mg/kg SC): 16.4 days | Disease Incidence ([1]; EAE Experiment 2, 3 mg/kg SC): 7/7 | Peak Severity ([1]; EAE Experiment 2, 3 mg/kg SC): 2.29 | effect on EAE ([1]; EAE Experiment 3): reduced disease severity or delayed disease onset | Days to Onset ([1]; EAE Experiment 3, 0.5 mg/kg SC): 21.4 days | Disease Incidence ([1]; EAE Experiment 3, 0.5 mg/kg SC): 5/6 | Peak Severity ([1]; EAE Experiment 3, 0.5 mg/kg SC): 1.5 | Days to Onset [1, 6]: 20.3 days | Disease Incidence [1, 6]: 6/7 | Peak Severity [1, 6]: 1.0 | Days to Onset ([1]; EAE Experiment 3, 1.0 mg/kg SC): 19.25 days | Disease Incidence ([1]; EAE Experiment 3, 1.0 mg/kg SC): 4/5 | Peak Severity ([1]; EAE Experiment 3, 1.0 mg/kg SC): 1.5 | Days to Onset ([1]; EAE Experiment 3, 1.5 mg/kg SC): 17.5 days | Disease Incidence ([1]; EAE Experiment 3, 1.5 mg/kg SC): 4/7 | Peak Severity ([1]; EAE Experiment 3, 1.5 mg/kg SC): 1.5 | Days to Onset ([1]; EAE Experiment 3, 2 mg/kg SC): 20 days | Disease Incidence ([1]; EAE Experiment 3, 2 mg/kg SC): 2/6 | Peak Severity ([1]; EAE Experiment 3, 2 mg/kg SC): 0.83 | Days to Onset [1, 7]: 13.83 days | Disease Incidence [1, 7]: 6/7 | Peak Severity [1, 7]: 1.86 | Days to Onset [1, 8]: 16.29 days | Disease Incidence [1, 8]: 7/7 | Peak Severity [1, 8]: 1.57 | Days to Onset [1, 9]: 15 days | Disease Incidence [1, 9]: 5/5 | Peak Severity [1, 9]: 2.2 | Days to Onset [1, 10]: 13.3 days | Disease Incidence [1, 10]: 6/6 | Peak Severity [1, 10]: 1.83 | Days to Onset [1, 11]: 16.71 days | Disease Incidence [1, 11]: 7/7 | Peak Severity [1, 11]: 2.29 | effect on EAE given therapeutically ([1]; EAE Experiment 4): reduced disease severity when given therapeutically | Days to Onset [1, 12]: 11.57 days | Disease Incidence [1, 12]: 7/7 | Peak Severity [1, 12]: 1.57 | Days to Onset [1, 13]: 12.67 days | Disease Incidence [1, 13]: 6/7 | Peak Severity [1, 13]: 1.14 | Days to Onset [1, 14]: 11.33 days | Disease Incidence [1, 14]: 6/7 | Peak Severity [1, 14]: 1.86 | Days to Onset [1, 15]: 12.71 days | Disease Incidence [1, 15]: 7/7 | Peak Severity [1, 15]: 1.42 | Days to Onset [1, 16]: 12 days | Disease Incidence [1, 16]: 7/7 | Peak Severity [1, 16]: 1.86 | effect on EAE given therapeutically ([1]; EAE Experiment 5): reduced disease severity when given therapeutically

107248 (antisense CTGAGTCTGTTTTCCATTCT; chemistry not given here) [compound 107248]
reduction of integrin α4 protein expression (integrin α4; 3 μM, 48 hours): 60% | reduction of integrin α4 protein expression (integrin α4; 10 μM, 48 hours): 90% | reduction of integrin α4 protein expression (integrin α4; 20 μM, 48 hours): 90% | reduction of integrin α4 protein expression (integrin α4; 30 μM, 48 hours): 90% | reduction of integrin α4 protein expression (integrin α4; 3-30 μM, 24 hours): 65-72% | % Control (human integrin α4; Table 25, 1 nM as printed, 24 hours): 9.1% | % Control (human integrin α4; Table 25, 10 nM, 24 hours): 23.2% | % Control (human integrin α4; Table 25, 30 nM, 24 hours): 52.1% | % Control (human integrin α4; Table 26, 1 μM): 52.1% | % Inhib. (human integrin α4; Table 26, 1 μM): 47.9% | % Control (human integrin α4; Table 26, 3 μM): 17.4% | % Inhib. (human integrin α4; Table 26, 3 μM): 82.6% | % Control (human integrin α4; Table 26, 10 μM): 7.9% | % Inhib. (human integrin α4; Table 26, 10 μM): 92.1% | % Control (human integrin α4; Table 26, 30 μM): 2.9% | % Inhib. (human integrin α4; Table 26, 30 μM): 97.1%
